This is an account of results in patent US11786464B2, “PH responsive block copolymer compositions and micelles that inhibit MCT 1 and related proteins” (The Board of Regents of the University of Texas System, priority 2020, dated 2023).

A short description of data set [1]: Toxicity analysis (body weight, cTnI, ALT, AST) in tumor-bearing mice. It counts as in vivo.
Experimental: Six to eight week old mice (n=5-7 for each group) were injected subcutaneously with TC-1 (2×10^5) or B16F10 (2×10^5) cells into the right flank. […] Some groups were intraperitoneally injected with 200 μg checkpoint inhibitors (anti-mPD-1, BioXcell, BE0146) for comparison or synergy evaluation. Tumor growth was subsequently measured twice a week using a digital caliper and calculated as 0.5×length×width×height by blinded investigators. Mouse weight was also recorded. Mice were sacrificed when the tumor volumes reached 1,500 mm^3.
Blood of different mouse groups were collected after 4 h. Then alanine transaminase activity assay (Abcam, ab105134), aspartate aminotransferase activity assay (Abcam, ab105135), and mouse cardiac troponin-I ELISA analysis (Life Diagnostics, Inc., Cat. No. CTNI-1-HS) were performed.
For another data set, the system named is TC-1 tumor. In words: Tumor growth and survival, TC-1 tumor model. It counts as in vivo. To be noted: TC-1 model, day 27. The method, then: Six to eight week old mice (n=5-7 for each group) were injected subcutaneously with TC-1 (2×10^5) or B16F10 (2×10^5) cells into the right flank. Animals were treated by 50 mg/kg AZD3965 (administered twice daily by oral gavage for a total of 7 days), or by AZD-UPS NPs (containing 2 mg/kg AZD3965, IV injected at days 7, 10 and 13). Some groups were intraperitoneally injected with 200 μg checkpoint inhibitors (anti-mPD-1, BioXcell, BE0146) for comparison or synergy evaluation. Tumor growth was subsequently measured twice a week using a digital caliper and calculated as 0.5×length×width×height by blinded investigators. Mouse weight was also recorded. Mice were sacrificed when the tumor volumes reached 1,500 mm^3.

The next data set deals with TC-1 cells. Kind of data set: Measurement of lactate and pH in the cell culture medium. To be noted: 1 μM (effective) AZD3965, 24 h, added directly (intact NPs), vs untreated control. It counts as cell-based. The method, then:
All animal procedures were performed with ethical compliance and approval by the Institutional Animal Care and Use Committee at the University of Texas Southwestern Medical Center. Cells were cultured in DMEM medium (10% fetal bovine serum, 100 U/mL penicillin G sodium and 100 μg/mL streptomycin (Pen/Strep), non-essential amino acids, and 20 μM β-mercaptoethanol (β-ME)) at 37° C. in 5% CO2 and the normal level of O2.
For lactate measurement, TC-1 cells were cultured in normal DMEM medium as described above with different drugs: free AZD3965 (1 uM), intact AZD-UPS NPs (1 uM effective AZD3965 concentration), or pretreatment of AZD-UPS NPs in pH 6.0 buffer for pH-activated drug release followed by addition into the cell culture medium. After 24 h incubation, lactate concentration was measured by NOVA BioProfile 4. For pH measurement, TC-1 cells were cultured in DMEM medium (D5030, Sigma) without NaHCO3, and in incubator without CO2 for 24 h, followed by measurement of medium pH.

A short description of another data set: in vivo. Format: in vivo, mice. To be noted: for concentration at 24 h: tumor tissue 24 h after administration, read-out: tumor accumulation of AZD3965.
Where [2] appears, read: oral administration 50 mg/kg for 7 days, serum 4 h after last treatment, vs untreated.

Molecules are shown by their SMILES. Like-named read-outs stand apart in the source and are kept apart here.

Experimental for in vivo: Mouse plasma were collected and added into 1 mL of methanol/water mixture (80/20, v/v) at 0.5, 6 and 24 h after treatment by different regimens. Tissues (heart, liver, kidney and tumor) were collected at 24 h. About 100 mg of tissues were removed, and the wet weight was recorded. The tissues were homogenized in 1 mL of methanol/water mixture (80/20, v/v). The plasma and tissue mixture were centrifuged and the supernatant was collected respectively, dried by a SpeedVac, then dissolved in methanol and measured by HPLC.

Turning to `Cc1[nH]nc(C(F)(F)F)c1Cc1sc2c(c1C(=O)N1C[C@](C)(O)CO1)c(=O)n(C)c(=O)n2C(C)C` [AZD3965], in data set [1] (setting [2]), the “level of alanine aminotransferase (ALT)” value is given as “significantly increased”, the “level of aspartate aminotransferase (AST)” value is “significantly increased” and the “level of cardiac troponin-I (cTnI)” value is on record as “significantly increased”. Besides, in data set [1] (oral administration, two weeks of treatment), the body weight entry is “did not cause weight loss”. Besides, in the data set on TC-1 tumor (oral 50 mg/kg twice daily for 7 days, p=0.09 vs untreated), the tumor volume is given as 9.2±4.1×10^2 mm^3. Further, the tumor volume in the data set with TC-1 tumor (oral AZD3965 in combination with anti-PD1) is 8.0±3.1×10^2 mm^3. In the data set on TC-1 cells, the “lactate secretion into culture medium” value is recorded as “significantly decreased the secretion of lactate” and the “pH change of culture medium” value is recorded as “inhibited the lowering of pH in the medium”. Further, the clearance from plasma result in the data set “in vivo” (intravenous injection 2 mg/kg) was “rapid clearance of the drug”. The AUC in the data set “in vivo” (mouse, intravenous 2 mg/kg AZD3965, plasma, read-out: area under the concentration-time (AUC) value) amounted to 5400 ± 2500 ng·h/mL. Also, in “in vivo” (mouse, intravenous 2 mg/kg), the concentration at 24 h was determined as 290 ± 120 ng/g. The concentration at 24 h in “in vivo” (mouse, oral administration 100 mg/kg (50-fold higher dose)) was determined as 4000 ± 3500 ng/g. Also, in “in vivo” (oral administration 100 mg/kg, at 30 min, TC-1 tumor-bearing mice), the “peak drug plasma concentration” value turned out to be 47 ± 27 µg/mL.
